Data reported in BindingDB's records for doi:10.1016/s0960-894x(98)00237-6 (Fujisawa Pharmaceutical, 1999).

Key:
[1] = Compound was evaluated for the inhibition of […] I-CCK-8 binding at Cholecystokinin type B receptor on guinea pig cerebral cortical membranes
[2] = Compound was evaluated for the inhibition of […] I-CCK-8 binding at CCK-B receptor Cholecystokinin type B receptor cerebral cortical membranes

Compound	IC50 [1]	IC50 [2]
CCc1cccc2c1N(CC(=O)N1CC3CCC(CC3)C1)C(=O)C(NC(=O)Nc1cccc(-c3nnn[nH]3)c1)N=C2c1ccccc1F (stereo not drawn) [1-[1-[2-(3-Aza-bicyclo[3.2.2]non-3-yl)-2-oxo-ethyl]-9-ethyl-5-(2-fluoro-phenyl)-2-oxo-2,3-dihydro-1H-benzo[e][1,4]diazepin-3-yl]-3-[3-(1H-tetrazol-5-yl)-phenyl]-urea]	0.81 nM	
O=C(Nc1cccc(-c2nnn[nH]2)c1)NC1N=C(c2ccccc2F)c2ccccc2N(CC(=O)N2CC3CCC(CC3)C2)C1=O (stereo not drawn) [1-[1-[2-(3-Aza-bicyclo[3.2.2]non-3-yl)-2-oxo-ethyl]-5-(2-fluoro-phenyl)-2-oxo-2,3-dihydro-1H-benzo[e][1,4]diazepin-3-yl]-3-[3-(1H-tetrazol-5-yl)-phenyl]-urea]	0.087 nM	
O=C(Nc1cccc(-c2nnn[nH]2)c1)NC1N=C(c2ccccc2F)c2cccc(Cl)c2N(CC(=O)N2CC3CCC(CC3)C2)C1=O (stereo not drawn) [1-[1-[2-(3-Aza-bicyclo[3.2.2]non-3-yl)-2-oxo-ethyl]-9-chloro-5-(2-fluoro-phenyl)-2-oxo-2,3-dihydro-1H-benzo[e][1,4]diazepin-3-yl]-3-[3-(1H-tetrazol-5-yl)-phenyl]-urea]		0.66 nM
